Laboratory results from patent publication US20200087340A1, “LIF/LIFR ANTAGONIST IN ONCOLOGY AND NONMALIGNANT DISEASES” (Evestra, Inc., priority 2018, published 2020).

What was measured:
CCRF-CEM = assay: NCI-60 screening, Leukemia; assay type: cell-based, human
NCI-H522 = assay: NCI-60 screening, Non-Small Cell Lung Cancer; assay type: cell-based, human
HCT-116 = assay: NCI-60 screening, Colon Cancer; assay type: cell-based, human
SF-539 = assay: NCI-60 screening, CNS Cancer; assay type: cell-based, human
U251 = assay: NCI-60 screening, CNS Cancer; assay type: cell-based, human
MDA-MB-435 = assay: NCI-60 screening, Melanoma; assay type: cell-based, human
IGROV1 = assay: NCI-60 screening, Ovarian Cancer; assay type: cell-based, human
Protocol: Additional four, 10-fold or ½ log serial dilutions are made to provide a total of five drug concentrations plus control.
For adherent cells, the assay is terminated by the addition of cold TCA. Cells are fixed in situ by the gentle addition of 50 μl of cold 50% (w/v) TCA (final concentration, 10% TCA) and incubated for 60 minutes at 4° C. The supernatant is discarded, and the plates are washed five times with tap water and air dried. Sulforhodamine B (SRB) solution (100 μl) at 0.4% (w/v) in 1% acetic acid is added to each well, and plates are incubated for 10 minutes at room temperature. After staining, unbound dye is removed by washing five times with 1% acetic acid and the plates are air dried. […] Using the seven absorbance measurements [time zero, (Tz), control growth, (C), and test growth in the presence of drug at the five concentration levels (Ti)], the percentage growth is calculated at each of the drug concentrations levels. […]
Three dose response parameters are calculated for each experimental agent. […] The drug concentration resulting in total growth inhibition (TGI) is calculated from Ti=Tz. […] Values are calculated for each of these three parameters if the level of activity is reached; however, if the effect is not reached or is exceeded, the value for that parameter is expressed as greater or less than the maximum or minimum concentration tested.

OVCAR-3 = assay: NCI-60 screening, Ovarian Cancer; assay type: cell-based, human
Protocol: EC 330 was also tested using the NCI-60 Screening Methodology. The human tumor cell lines of the cancer screening panel are grown in RPMI 1640 medium containing 5% fetal bovine serum and 2 mM L-glutamine. For a typical screening experiment, cells are inoculated into 96 well microtiter plates in 100 μL at plating densities ranging from 5,000 to 40,000 cells/well depending on the doubling time of individual cell lines. After cell inoculation, the microtiter plates are incubated at 37° C., 5% CO2, 95% air and 100% relative humidity for 24 h prior to addition of experimental drugs. […]
Following drug addition, the plates are incubated for an additional 48 h at 37° C., 5% CO2, 95% air, and 100% relative humidity. […] Bound stain is subsequently solubilized with 10 mM trizma base, and the absorbance is read on an automated plate reader at a wavelength of 515 nm. […] Using the seven absorbance measurements [time zero, (Tz), control growth, (C), and test growth in the presence of drug at the five concentration levels (Ti)], the percentage growth is calculated at each of the drug concentrations levels. Percentage growth inhibition is calculated as: […]
Three dose response parameters are calculated for each experimental agent. […] The drug concentration resulting in total growth inhibition (TGI) is calculated from Ti=Tz. […]

OVCAR-4 = assay: NCI-60 screening, Ovarian Cancer; assay type: cell-based, human
OVCAR-5 = assay: NCI-60 screening, Ovarian Cancer; assay type: cell-based, human
PC-3 = assay: NCI-60 screening, Prostate Cancer; assay type: cell-based, human
ACHN = assay: NCI-60 screening, Renal Cancer; assay type: cell-based, human
TK-10 = assay: NCI-60 screening, Renal Cancer; assay type: cell-based, human
UO-31 = assay: NCI-60 screening, Renal Cancer; assay type: cell-based, human
T-47D = assay: NCI-60 screening, Breast Cancer; assay type: cell-based, human
[1] = tested on: human umbilical vein endothelial cells (HUVEC); assay: Matrigel in vitro HUVECs tube formation assay (angiogenesis); assay type: cell-based; conditions: 1 μM concentration, all measured time points
Protocol: Matrigel in vitro HUVECs tube formation assay: The tube formation assay was performed using 12-well plate coated with 100 μL Matrigel basement membrane matrix (BD Bioscience) per well and polymerized at 37° C. for 30 min. Human umbilical vascular endothelial cells (HUVECs) suspended in M199 medium containing 2% FBS were plated on the Matrigel at a density of 2×10^5 cells/well. […] After 8 h, the Matrigel-induced morphological changes were photographed and the extent of capillary tube formation was evaluated by measuring the total tube length per field.

For C#CC(F)(F)[C@]1(O)CCC2C3CCC4=CC(=O)CCC4=C3C(c3ccc(C4CC4)cc3)C[C@@]21C (stereo partly drawn) [EC330, 17α-(1,1-difluoro-2-propyn-1-yl)-17β-hydroxy-11β-[4-p-(cyclopropyl)phenyl]estra-4,9-dien-3-one], the “TGI (log10TGI)” value (CCRF-CEM) was <−8.00, the “TGI (log10TGI)” value (NCI-H522) was <−8.00 and the “TGI (log10TGI)” value (HCT-116) was −4.55. For the same compound, the “TGI (log10TGI)” value (SF-539) was −7.77, the “TGI (log10TGI)” value (U251) was −5.78 and the “TGI (log10TGI)” value (MDA-MB-435) was −5.03. For the same compound, the “TGI (log10TGI)” value (IGROV1) was <−8.00, the “TGI (log10TGI)” value (OVCAR-3) was −6.85 and the “TGI (log10TGI)” value (OVCAR-4) was >−4.00. The “TGI (log10TGI)” value (OVCAR-5) was −5.25, the “TGI (log10TGI)” value (PC-3) was −5.53 and the “TGI (log10TGI)” value (ACHN) was −5.09. The “TGI (log10TGI)” value (TK-10) was −4.91, the “TGI (log10TGI)” value (UO-31) was <−8.00 and the “TGI (log10TGI)” value (T-47D) was −5.00. For the same compound, the tube formation [1] was “complete abrogation of tube formation”.
